Experimental data taken from patent US20150368213A1, “Novel Inhibitors of System Xc-” (The University of Montana, Missoula, MT, priority 2014, published 2015).
Like-named read-outs stand apart in the source and are kept apart here.

Biological target: T1, System xc− (Sxc−, glutamate/cystine antiporter) (Homo sapiens, UniProt Q9UPY5)
T1 construct: A number of glioma cell lines, including SNB-19, express markedly higher levels of Sxc^−; host or cells: SNB-19 human glioma cells
T1 sequence (Q9UPY5 1-501): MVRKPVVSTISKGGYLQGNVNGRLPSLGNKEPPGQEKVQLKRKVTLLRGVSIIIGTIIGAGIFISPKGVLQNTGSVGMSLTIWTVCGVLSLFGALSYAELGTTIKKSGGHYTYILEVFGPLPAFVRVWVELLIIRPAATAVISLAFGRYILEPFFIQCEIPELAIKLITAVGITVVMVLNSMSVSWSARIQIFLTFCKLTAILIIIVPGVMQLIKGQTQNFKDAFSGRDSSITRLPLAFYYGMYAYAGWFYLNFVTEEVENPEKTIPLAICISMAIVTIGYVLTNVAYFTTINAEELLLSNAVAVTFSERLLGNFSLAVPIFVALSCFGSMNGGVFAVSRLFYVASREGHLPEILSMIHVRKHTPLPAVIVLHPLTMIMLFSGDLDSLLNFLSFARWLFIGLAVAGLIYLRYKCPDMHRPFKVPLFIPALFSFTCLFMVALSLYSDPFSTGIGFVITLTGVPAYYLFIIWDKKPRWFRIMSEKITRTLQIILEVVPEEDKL
T1 sequence (P08195 1-529 partner): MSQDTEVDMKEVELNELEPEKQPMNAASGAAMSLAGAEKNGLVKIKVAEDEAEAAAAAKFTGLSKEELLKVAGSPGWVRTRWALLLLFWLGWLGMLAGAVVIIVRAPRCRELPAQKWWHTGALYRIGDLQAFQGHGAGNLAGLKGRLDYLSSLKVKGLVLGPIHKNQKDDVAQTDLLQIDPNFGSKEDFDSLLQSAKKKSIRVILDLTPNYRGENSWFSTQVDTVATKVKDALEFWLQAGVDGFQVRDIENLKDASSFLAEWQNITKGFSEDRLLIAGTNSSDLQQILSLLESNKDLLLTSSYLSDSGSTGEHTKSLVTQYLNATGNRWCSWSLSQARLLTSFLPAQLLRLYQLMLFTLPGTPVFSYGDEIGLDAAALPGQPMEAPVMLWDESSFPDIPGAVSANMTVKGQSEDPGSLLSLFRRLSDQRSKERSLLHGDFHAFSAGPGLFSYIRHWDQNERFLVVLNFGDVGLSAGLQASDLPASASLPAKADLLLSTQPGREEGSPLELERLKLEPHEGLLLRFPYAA
Assay: Inhibition of 3H-L-Glu uptake into SNB-19 glioma cells under Cl-dependent (Na-free) conditions
Format: cell-based
Conditions: for 3H-L-Glu Uptake (% control): 100 μM 3H-L-Glu, smaller number = greater inhibition; for inhibitory activity, ranking among compounds of Table 1: comment on Table 1
Experimental: SNB-19 glioma cells, purchased from American Type Culture Collection (Manassas, Va.), were grown in DMEM/F-12 medium (pH 7.4) containing 1 mM pyruvate and 16 mM NaHCO3 and supplemented with 10% fetal calf serum. The cells were cultured in 150 cm^2 flasks (Corning) and maintained at 37° C. in a humidified atmosphere of 5% CO2. In the ^3H-L-Glu uptake experiments, cells were seeded in 12 well culture plates (Costar) at a density of 5×10^4 cells/well and maintained for 3 days until 80-90% confluent. Protein concentrations were determined by the bicinchoninic acid (BCA) method (Pierce).
Uptake of ^3H-L-Glu into cultured cells was quantified using a modification of the procedure of Martin and Shane as previously described by Patel et al. (supra). Briefly, after removal of culture media, wells were rinsed three times and pre-incubated in 1 ml Na^+-free HEPES buffered (pH 7.4) Hank's balanced salt solution (HBHS) at 30° C. for 5 min. The Nat free buffer contained: 137.5 mM choline Cl, 5.36 mM KCl, 0.77 mM KH2PO4, 0.71 mM MgSO^4.7H2O, 1.1 mM CaCl2, 10 mM D-glucose, and 10 mM HEPES. Uptake was initiated by aspiration of the pre-incubation buffer and the addition of a 500 gl aliquot of Na^+-free transport buffer containing ^3H-L-Glu (4-16 mCi/m1) mixed with L-Glu (10-500 μM, final concentration). In those assays that evaluated inhibitor activity, the 500 gl aliquot of transport buffer contained both the ^3H-L-Glu and potential inhibitors to ensure simultaneous addition. Following a 5 min incubation at 30° C., the assays were terminated by three sequential 1 ml washes with ice cold buffer after which the cells were dissolved in 1 ml of 0.4 M NaOH for 24 h. An aliquot (200 μl) was then transferred into a 5 ml glass scintillation vial and neutralized with the addition of 5 gl glacial acetic acid followed by 3.5 ml Liquiscint© scintillation fluid (National Diagnostics) to each sample. Incorporation of radioactivity was quantified by liquid scintillation counting (LSC, Beckman LS 6500). Values are reported as mean±S.E.M. and are corrected for non-specific uptake (e.g., leakage and binding) by subtracting the amount of ^3H-L-Glu accumulation at 4° C.
The inhibitory activity of the compounds was determined by quantifying the ability of the analogues to reduce the accumulation of ^3H-L-Glu into human SNB-19 glioblastoma cells under Cl-dependent (Na-free) conditions. A number of glioma cell lines, including SNB-19, express markedly higher levels of Sxc^− and reduced levels of the sodium-dependent excitatory amino acid transporters (“EAATs”) than do primary astrocytes, making them well suited for pharmacological assays (Ye et al., Compromised glutamate transport in human glioma cells: reduction-mislocalization of sodium-dependent glutamate transporters and enhanced activity of cystine-glutamate exchange, J Neurosci, 1999 Dec. 15, 19(24), 10767-77). The compounds of the invention were initially screened at a single concentration of substrate (100 μM ^3H-L-Glu) and isoxazole (500 μM) to confirm inhibitory activity. […] (The data are reported as % of control uptake, thus the smaller the number the greater the level of inhibition.)
A slope replot for 5-4-TFM-Benzyl-4-bis-TFM-HMICA is included in FIG. 3, (average Ki=3±1 μM, n=5). […] In the instance of 5-4-TFM-Benzyl-4-bis-TFM-HMICA the replot of I/Vmax,apparent vs. [I] was indeed linear and yielded a Ki of about 8 μM (plots not shown). […] As the identification of the di-substituted isoxazoles as noncompetitive inhibitors was unexpected, the kinetic data was also analyzed using the Eadie-Hofstee method as a second graphical approach.

[1] = SNB-19 cells, 3H-L-Glu uptake, read-out: KI 3H-L-Glu Uptake

C/C(=N\Nc1cc(C(F)(F)F)cc(C(F)(F)F)c1)c1c(C(=O)O)noc1Cc1ccc(C(F)(F)F)cc1 [5-4-TFM-Benzyl-4-bis-TFM-HMICA]
pattern (mechanism) of inhibition (Michaelis-Menten, LWB and Eadie-Hofstee analyses, FIGS. 1-4): noncompetitive inhibition
3H-L-Glu Uptake (% control) (compound 100 μM, SNB-19 cells): 14 % control
Ki (replot of LWB graphs, plots not shown, read-out: Ki from 1/Vmax,apparent vs. [I] replot): ~8 µM
Ki (slope replot (FIG. 3), n=5, read-out: average Ki from LWB slope vs. [I] replot): 3 ± 1 µM

Cc1onc(-c2c3ccccc3c(Cl)c3ccccc23)c1C(=O)NC(Cc1cc(Br)c(O)c(Br)c1)C(=O)O (centres unmarked) [AIM-DBT, 2-(3-(10-chloroanthracen-9-yl)-5-methylisoxazole-4-carboxamido)-3-(3,5-dibromo-4-hydroxyphenyl)propanoic acid]
Ki [1]: 15 µM
inhibitory activity, ranking among compounds of Table 1: greatest inhibitory activity
3H-L-Glu Uptake (% control) (compound 100 μM, SNB-19 cells): 8 % control

Cc1onc(-c2c(OCc3ccccc3)ccc3ccccc23)c1C(=O)N[C@@H](Cc1cc(Br)c(O)c(Br)c1)C(=O)O [Compound 3ND-101, (2S)-2-(3-(2-(benzyloxy)naphthalen-1-yl)-5-methylisoxazole-4-carboxamido)-3-(3,5-dibromo-4-hydroxyphenyl)propanoic acid]
inhibitory activity, ranking among compounds of Table 1: greatest inhibitory activity
3H-L-Glu Uptake (% control) (compound 100 μM, SNB-19 cells): 8 % control
3H-L-Glu Uptake (% control) (compound 500 μM, SNB-19 cells): 1 % control

CN(C)c1cccc2c(S(=O)(=O)NC(Cc3cc(Br)c(O)c(Br)c3)C(=O)O)cccc12 (centres unmarked) [Danzyl-DBT, 3-(3,5-dibromo-4-hydroxyphenyl)-2-(5-(dimethylamino)naphthalene-1-sulfonamido)propanoic acid]
Ki [1]: 25 µM
3H-L-Glu Uptake (% control) (compound 100 μM, SNB-19 cells): 52 % control

Cc1onc(-c2cccc3ccccc23)c1C(=O)NC(Cc1cc(Br)c(O)c(Br)c1)C(=O)O (centres unmarked) [LC-19, 3-(3,5-dibromo-4-hydroxyphenyl)-2-(5-methyl-3-(naphthalen-1-yl)isoxazole-4-carboxamido)propanoic acid]
3H-L-Glu Uptake (% control) (compound 100 μM, SNB-19 cells): 23 % control
3H-L-Glu Uptake (% control) (compound 500 μM, SNB-19 cells): 6 % control

COc1ccc2ccccc2c1-c1noc(C)c1C(=O)NC(Cc1cc(Br)c(O)c(Br)c1)C(=O)O (centres unmarked) [MOI-16, 3-(3,5-dibromo-4-hydroxyphenyl)-2-(5-methyl-3-(2-methoxynaphthalen-1-yl)isoxazole-4-carboxamido)propanoic acid]
3H-L-Glu Uptake (% control) (compound 100 μM, SNB-19 cells): 32 % control
3H-L-Glu Uptake (% control) (compound 500 μM, SNB-19 cells): 8 % control
inhibition of the System Xc- antiporter, in words (statement in the crystal structure description): potent inhibitor
